Results reported in patent publication US8124793B2, “Derivatives of ethylene methanedisulfonate as cancer chemotherapeutic agents” (priority 2007, dated 2012).

Tests used:
Assay type in all cases: cell-based
[1] = system: SF-268; test: NCI screen, growth of human tumor cells: CNS Cancer SF-268; conditions: SF-268 (CNS Cancer), 10^−4 molar
Procedure, shortened: (§1)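 NCI screening: compound applied to tumor cell lines at a given molar concentration, growth measured as percent. Minimum 60 data points/compound; cancer type noted.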

[2] = system: SF-539; test: NCI screen, growth of human tumor cells: CNS Cancer SF-539; conditions: SF-539, 10^−4 molar
Procedure, shortened: as §1

[3] = system: HT29; test: NCI screen, growth of human tumor cells: Colon Cancer HT29; conditions: HT29 (Colon Cancer), 10^−4 molar
Procedure, shortened: as §1

[4] = system: MCF 7; test: NCI screen, growth of human tumor cells: Breast Cancer MCF 7; conditions: MCF 7 (Breast Cancer), 10^−4 molar
Procedure, shortened: as §1

[5] = system: MDA-MB-435; test: NCI screen, growth of human tumor cells: Breast Cancer MDA-MB-435
Procedure, shortened: as §1

[6] = system: SNB-19; test: NCI screen, growth of human tumor cells: CNS Cancer SNB-19; conditions: SNB-19, 10^−4 molar
Procedure, shortened: as §1

[7] = system: M14; test: NCI screen, growth of human tumor cells: Melanoma M14; conditions: M14, 10^−4 molar
Procedure, shortened: as §1

[8] = system: HL-60 (TB); test: NCI screen, growth of human tumor cells: Leukemia HL-60 (TB); conditions: HL-60 (TB) (Leukemia), 10^−4 molar
Protocol: (§2) In the NCI screening process, each compound was tested and described by a minimum of 60 data points. The test data include, but are not limited to the type of cancer, the molar concentration used in the screen, and the percent growth of the cancer. In some cases, NMR and elemental analysis were used for structural assignment.

[9] = system: UACC-257; test: NCI screen, growth of human tumor cells: Melanoma UACC-257
Procedure, shortened: as §1

[10] = system: NCI-H23; test: NCI screen, growth of human tumor cells: Non-Small Cell Lung NCI-H23; conditions: NCI-H23, 10^−4 molar
Procedure, shortened: as §1

[11] = system: NCI-H460; test: NCI screen, growth of human tumor cells: Non-Small Cell Lung NCI-H460; conditions: NCI-H460 (Non-Small Cell Lung), 10^−4 molar
Procedure, shortened: as §1

[12] = system: NCI-H226; test: NCI screen, growth of human tumor cells: Non-Small Cell Lung NCI-H226; conditions: NCI-H226 (Non-Small Cell Lung), 10^−4 molar
Procedure, shortened: as §1

[13] = system: OVCAR-3; test: NCI screen, growth of human tumor cells: Ovarian Cancer OVCAR-3; conditions: OVCAR-3 (Ovarian Cancer), 10^−4 molar
Procedure, shortened: as §1

[14] = system: SK-MEL-5; test: NCI screen, growth of human tumor cells: Melanoma SK-MEL-5; conditions: SK-MEL-5, 10^−4 molar
Procedure, shortened: as §1

[15] = system: RXF-393; test: NCI screen, growth of human tumor cells: Renal Cancer RXF-393; conditions: RXF-393 (Renal Cancer), 10^−4 molar
Procedure, shortened: as §1

[16] = system: HCT-116; test: NCI screen, growth of human tumor cells: Colon Cancer HCT-116; conditions: HCT-116, 10^−4 molar
Procedure, shortened: as §1

[17] = system: SF-295; test: NCI screen, growth of human tumor cells: CNS Cancer SF-295
Procedure, shortened: as §1

[18] = system: SNB-75; test: NCI screen, growth of human tumor cells: CNS Cancer SNB-75; conditions: SNB-75 (CNS Cancer), 10^−4 molar
Procedure, shortened: as §1

[19] = system: UACC-62; test: NCI screen, growth of human tumor cells: Melanoma UACC-62; conditions: UACC-62 (Melanoma), 10^−4 molar
Procedure, shortened: as §1

[20] = system: IGROVI; test: NCI screen, growth of human tumor cells: Ovarian Cancer IGROVI; conditions: IGROVI (Ovarian Cancer), 10^−4 molar
Procedure, shortened: as §1

[21] = system: K562; test: NCI screen, growth of human tumor cells: Leukemia K562; conditions: K562 (Leukemia), 10^−4 molar
Procedure, shortened: as §1

[22] = system: SR; test: NCI screen, growth of human tumor cells: Leukemia SR; conditions: SR
Procedure, shortened: as §1

[23] = system: OVCAR-5; test: NCI screen, growth of human tumor cells: Ovarian Cancer OVCAR-5
Procedure, shortened: as §1

[24] = system: HOP-62; test: NCI screen, growth of human tumor cells: Non-Small Cell Lung HOP-62
Procedure, shortened: as §1

[25] = system: EKVX; test: NCI screen, growth of human tumor cells: Non-Small Cell Lung EKVX; conditions: EKVX (Non-Small Cell Lung), 10^−4 molar
Procedure, shortened: as §1

[26] = system: SK-OV-3; test: NCI screen, growth of human tumor cells: Ovarian Cancer SK-OV-3; conditions: SK-OV-3 (Ovarian Cancer), 10^−4 molar
Protocol: as §2

[27] = system: UO-31; test: NCI screen, growth of human tumor cells: Renal Cancer UO-31; conditions: UO-31 (Renal Cancer), 10^−4 molar
Procedure, shortened: as §1

[28] = system: RPMI-8226; test: NCI screen, growth of human tumor cells: Leukemia RPMI-8226; conditions: RPMI-8226 (Leukemia), 10^−4 molar
Procedure, shortened: as §1

[29] = system: COLO205; test: NCI screen, growth of human tumor cells: Colon Cancer COLO205; conditions: COLO205 (Colon Cancer), 10^−4 molar
Procedure, shortened: as §1

[30] = system: KM12; test: NCI screen, growth of human tumor cells: Colon Cancer KM12; conditions: KM12 (Colon Cancer), 10^−4 molar
Procedure, shortened: as §1

[31] = system: BT-549; test: NCI screen, growth of human tumor cells: Breast Cancer BT-549; conditions: BT-549 (Breast Cancer), 10^−4 molar
Procedure, shortened: as §1

[32] = system: CAKI-1; test: NCI screen, growth of human tumor cells: Renal Cancer CAKI-1; conditions: CAKI-1 (Renal Cancer), 10^−4 molar
Procedure, shortened: as §1

[33] = system: OVCAR-8; test: NCI screen, growth of human tumor cells: Ovarian Cancer OVCAR-8; conditions: OVCAR-8 (Ovarian Cancer), 10^−4 molar
Protocol: as §2

[34] = system: MOLT-4; test: NCI screen, growth of human tumor cells: Leukemia MOLT-4; conditions: MOLT-4 (Leukemia), 10^−4 molar
Procedure, shortened: as §1

[35] = system: MCF7/ADR-RES; test: NCI screen, growth of human tumor cells: Breast Cancer MCF7/ADR-RES; conditions: MCF7/ADR-RES, 10^−4 molar
Procedure, shortened: as §1

[36] = system: TK-10; test: NCI screen, growth of human tumor cells: Renal Cancer TK-10; conditions: TK-10 (Renal Cancer), 10^−4 molar
Protocol: as §2

[37] = system: SN12C; test: NCI screen, growth of human tumor cells: Renal Cancer SN12C; conditions: SN12C (Renal Cancer), 10^−4 molar
Procedure, shortened: as §1

[38] = system: human cancer cells; test: NCI screen summary over the cancers tested (negative growth of human cancer cells); conditions: cancers with negative growth / cancers tested
Protocol: as §2
The derivatives in the tables are grouped using the same category as in the tables 1-6.

[39] = system: SK-MEL-2; test: NCI screen, growth of human tumor cells: Melanoma SK-MEL-2; conditions: SK-MEL-2 (Melanoma), 10^−4 molar
Procedure, shortened: as §1

[40] = system: HOP-18; test: NCI screen, growth of human tumor cells: Non-Small Cell Lung HOP-18; conditions: HOP-18 (Non-Small Cell Lung), 10^−4 molar
Procedure, shortened: as §1

[41] = system: HOP-92; test: NCI screen, growth of human tumor cells: Non-Small Cell Lung HOP-92; conditions: HOP-92 (Non-Small Cell Lung), 10^−4 molar
Procedure, shortened: as §1

[42] = system: HS 578T; test: NCI screen, growth of human tumor cells: Breast Cancer HS 578T; conditions: HS 578T (Breast Cancer), 10^−4 molar
Procedure, shortened: as §1

[43] = system: SK-MEL-28; test: NCI screen, growth of human tumor cells: Melanoma SK-MEL-28; conditions: SK-MEL-28, 10^−4 molar
Procedure, shortened: as §1

[44] = system: DU-145; test: NCI screen, growth of human tumor cells: Prostate Cancer DU-145; conditions: DV-145, 10^−4 molar
Procedure, shortened: as §1

[45] = system: NCI-H322M; test: NCI screen, growth of human tumor cells: Non-Small Cell Lung NCI-H322M; conditions: NCI-H322M, 10^−4 molar
Procedure, shortened: as §1

[46] = system: KD488; test: NCI screen, growth of human tumor cells: Lymphoma KD488
[47] = system: SU-DAL-7; test: NCI screen, growth of human tumor cells: Lymphoma SU-DAL-7; conditions: SU-DAL-7, 10^−4 molar

## CC=CC(=O)C1(CC2=C(C)C(=O)c3ccccc3C2=O)S(=O)(=O)OCCOS1(=O)=O [NSC 731265]
[1]
  percent of growth of human tumor cells: −49%
[2]
  % Growth: −79%
[3]
  percent of growth of human tumor cells: −6%
[4]
  percent of growth of human tumor cells: −8%
[5]; MDA-MB-435, 10^−4 molar
  % Growth: −71%
[5]; MDA-MB-435, 10^−5 molar
  % Growth: −66%
[6]
  % Growth: −87%
[7]
  % Growth: −86%
[8]
  percent of growth of human tumor cells: 2%
[9]; UACC-257, 10^−4 molar
  % Growth: −87%
[9]; UACC-257, 10^−5 molar
  % Growth: 40%
[10]
  % Growth: −74%
[11]
  percent of growth of human tumor cells: 5%
[12]
  percent of growth of human tumor cells: −4%
[13]
  percent of growth of human tumor cells: 7%
[14]
  % Growth: −67%
[15]
  percent of growth of human tumor cells: −15%
[16]
  % Growth: −100%
[17]; SF-295 (CNS Cancer), 10^−4 molar
  percent of growth of human tumor cells: −57%
[18]
  percent of growth of human tumor cells: −26%
[19]
  percent of growth of human tumor cells: −13%
[20]
  percent of growth of human tumor cells: 4%
[21]
  percent of growth of human tumor cells: 11%
[22]; 10^−4 molar
  % Growth: 12%
[22]; 10^−5 molar
  % Growth: 15%
[22]; 10^−6 molar
  % Growth: 57%
[23]; OVCAR-5, 10^−4 molar
  % Growth: −83%
[23]; OVCAR-5, 10^−5 molar
  % Growth: 43%
[23]; OVCAR-5, 10^−6 molar
  % Growth: 34%
[23]; OVCAR-5, 10^−7 molar
  % Growth: 40%
[23]; OVCAR-5, 10^−8 molar
  % Growth: 63%
[24]; HOP-62, 10^−4 molar
  % Growth: −80%
[24]; HOP-62, 10^−5 molar
  % Growth: 49%
[25]
  percent of growth of human tumor cells: −57%
[26]
  percent of growth of human tumor cells: −61%
[27]
  percent of growth of human tumor cells: −10%
[28]
  percent of growth of human tumor cells: −40%
[29]
  percent of growth of human tumor cells: −50%
[30]
  percent of growth of human tumor cells: −16%
[31]
  percent of growth of human tumor cells: −54%
[32]
  percent of growth of human tumor cells: −2%
[33]
  percent of growth of human tumor cells: −38%
[34]
  percent of growth of human tumor cells: 2%
[35]
  % Growth: −53%
[36]
  percent of growth of human tumor cells: −10%
[37]
  percent of growth of human tumor cells: −17%
[38]; 10^−4 M conc.
  Percentage of cancers showing negative growth cancers tested: 79%
[38]; 10^−5 M conc.
  Percentage of cancers showing negative growth cancers tested: 20%
[39]
  percent of growth of human tumor cells: 15%
[40]
  percent of growth of human tumor cells: −43%
[41]
  percent of growth of human tumor cells: −43%
[42]
  percent of growth of human tumor cells: −18%
[43]
  % Growth: −69%
[44]
  % Growth: −78%
[45]
  % Growth: −80%

## O=C(c1cccc2ccccc12)C1S(=O)(=O)OCCOS1(=O)=O [NSC 679047, ethylene 1-naphthoylmethanedisulfonate]
[46]; KD488, 10^−4 molar
  % Growth: 29%
[46]; KD488, 10^−5 molar
  % Growth: 45%
[46]; KD488, 10^−6 molar
  % Growth: 56%
[46]; KD488, 10^−7 molar
  % Growth: 71%
[46]; KD488, 10^−8 molar
  % Growth: 78%
[17]; SF-295, 10^−4 molar
  % Growth: −53%
[17]; SF-295, 10^−5 molar
  % Growth: −50%
[17]; SF-295, 10^−6 molar
  % Growth: −54%
[17]; SF-295, 10^−7 molar
  % Growth: −44%
[17]; SF-295, 10^−8 molar
  % Growth: 70%
[47]
  % Growth: 42%
[38]; 10^−4 M conc.
  Percentage of cancers showing negative growth cancers tested: 10^−4 M conc. = 1/3 = 33%
